Test results published in publication PMC9682480, ““Vermellogens” and the Development of CB[8]-Based Supramolecular Switches Using pH-Responsive and Non-Toxic Viologen Analogues” (Journal of the American Chemical Society, 2022).

Tests used:
[1] = pKa determination by UV–vis acid–base titrations in water; type: physicochemical; conditions: aqueous phosphate and carbonate buffers; RH^2+/R^+ or MH^+/M; UV–vis titrations in water, chloride salts
Description: Next, in our study of the stimuli-responsiveness of the “vermellogens”, we proceeded to verify the new analogues as pH-based molecular switches, by conducting UV–vis acid–base titrations in water for the compounds Ra–eH·2Cl. All the new “vermellogens” show similar π–π* main absorption bands centered at λ^1max = 366–377 nm at neutral or slightly acidic pH. An increase in the basicity of the solution produces the decrease of the aforementioned bands and the concomitant rise of new absorptions associated with the deprotonated compounds and centered at λ^2max = 460–475 nm. The pKa values obtained by the aforementioned UV–vis titrations for Ra–eH·2Cl are quite similar, showing no dependence on the substituent on the pyridinium N^+ atoms within their structures (Table 1 and Figures S115–S125). Furthermore, to evaluate the effect of the two different pyridinium heterocycles on the observed anomalous pKa’s, two analogues were prepared (Ma–bH·Cl), in which one of these moieties was substituted by a neutral phenyl ring.
4.2. pK a determination for Rb by UV-Vis
(§1) Figure S 116: UV-Vis spectra for the titration of R b·2Cl at 20 μM in NaH 2PO4/Na2HPO4, KHCO3/K2CO3 and Na2HPO4/Na2PO4 buffers. On the top right: Absorption of R b+ at λ = 474 nm plotted against pH. pH V (mL) of V (mL) of V (mL) of V (mL) of V (mL) of ABS log[A474-(measured) solution A solution B solution C solution D solution E (474 ARb2+)/(ARb1+- […]
(§2) Table S 4: Experimental data obtained for the UV-Vis titration of R b·2Cl at 20 μM in NaH2PO4/Na2HPO4, KHCO3/K2CO3 and Na2HPO4/Na2PO4 buffer. Solution A: 20 μM of R b·2Cl and 0.05 M of NaH2PO4. Solution B: 20 μM of R b·2Cl and 0.05 M of NaHPO4. Solution C: 20 μM of R b·2Cl and 0.05 M of Na2PO4. Solution D: 20 μM of R b·2Cl and 0.05 M of KHCO3. Solution E: 20 μM of R b·2Cl and 0.05 M of […]
4.4. pK a determination for Rc by UV-Vis
as §1, with “119:” for “116:”, “c·2Cl” for “b·2Cl”, “c+” for “b+”, “466” for “474”, “log[A466-(measured)” for “log[A474-(measured)”, “(466 ARc2+)/(ARc+-” for “(474 ARb2+)/(ARb1+-”
Table S 5: Experimental data obtained for the UV-Vis titration of R c·2Cl at 20 μM in NaH2PO4/Na2HPO4, KHCO3/K2CO3 and Na2HPO4/Na2PO4 buffer. Solution A: 20 μM of Rc·2Cl and 0.05 M of NaH2PO4. Solution B: 20 μM of R c·2Cl and 0.05 M of NaHPO4. Solution C: 20 μM of R c·2Cl and 0.05 M of Na2PO4. Solution D: 20 μM of R c·2Cl and 0.05 M of KHCO3. Solution E: 20 μM of R c·2Cl and 0.05 M of […]
4.6. pK a determination for Rd by UV-Vis
as §1, with “122:” for “116:”, “d·2Cl” for “b·2Cl”, “d+” for “b+”, “475” for “474”, “log[A475-(measured)” for “log[A474-(measured)”, “(475 ARd2+)/(ARd1+-” for “(474 ARb2+)/(ARb1+-”
as §2, with “6:” for “4:”, “d·2Cl” for “b·2Cl”
4.8. pK a determination for Re by UV-Vis
as §1, with “125:” for “116:”, “e·2Cl” for “b·2Cl”, “e+” for “b+”, “460” for “474”, “log[A460-(measured)” for “log[A474-(measured)”, “(460 ARe2+)/(ARe1+-” for “(474 ARb2+)/(ARb1+-”
Table S 7: Experimental data obtained for the UV-Vis titration of R e·2Cl at 20 μM in NaH2PO4/Na2HPO4, KHCO3/K2CO3 and Na2HPO4/Na2PO4 buffer. Solution A: 20 μM of R e·2Cl and 0.05 M of […]

[2] = Cell viability assay (WST-1) in human fibroblastic cell line; type: cell-based; conditions: human, HFF-1 fibroblast cells; HFF-1, 0.5 mM, 24 h, WST-1; read-out: cell viability (cell survival)
Procedure: (§3) To conclude with this part of our work on the molecular responsiveness of the “vermellogens,” we decided to substantiate whether the bis-pyridinium core in the compounds would have or not a viologen-like reversible redox behavior. Thus, cyclic voltamograms were recorded for RaH·2Cl (2 mM) in buffered aqueous solutions at pH = 2 (0.05 M H3PO4/NaH2PO4), 7 (0.05 M NaH2PO4/Na2HPO4), and 12 (0.05 M Na2HPO4/Na3PO4). Those shown both the acidic (RaH^2+) and basic (Ra^+) forms of the “red thread” owning non-reversible redox peaks (Figure 1b).
(§4) Fibroblast cells (HFF-1; ATTC® SCRC-1041TM) were maintained in Dulbecco’s modified eagle’s medium (DMEM) supplemented with 10% FBS and 1% P/S and kept at 37 °C in a humidified atmosphere containing 5% CO2 until their use. HFF-1 cells were seeded in 96 well-plates at an initial density of 10^4 cells/well and allowed to attach for 24 h at 37 °C. The following day, culture medium was removed, replenished by fresh medium (90 µl) and cells were exposed to different concentration of R aH·2Cl and MV (10 µl; final concentrations 0.01, 0.05, 0.1, 0.5 and 1 mM). Control conditions included cells cultured in culture medium, but in absence of compound. Cells were further incubated for 24 h at 37°C and cell viability was monitored using the tetrazolium salt (WST-1) method.6 Absorbance at 450 nm was measured using a Synergy HTX Plate Reader (Biotek, Winooski, VT, USA) and the percent of cell viability (%) was calculated as follows:
(§5) Viability (%) = […]
(§6) Where Asample and Anegative control depict those absorbance values measured at 450 nm in presence and in absence of compound, respectively. All conditions were tested by triplicate in two independent experiments. Data were expressed as mean ± standard deviation (SD). Statistical analysis was performed by two-ways and one-way ANOVA with Tukey’s LSD post hoc test using IBM SPSS Statistics version 23. A p ≤ 0.05 was considered statistically significant.
(§7) Figure S 138: Compounds tested in WST-1 assay for cell viability.
(§8) 6 Carballo-Pedrares, N.; Kattar, A.; Concheiro, A.; Alvarez-Lorenzo, C.; Rey-Rico, Niosomes-based gene delivery systems for effective transfection of human mesenchymal stem cells. A. Matter. Sci. Eng. 2021, 18, 112307.

HFF-1 cells = experiment: as above; type: cell-based; conditions: HFF-1, 1 mM, 24 h, WST-1
Procedure: as §3, §4, §5, §6, §7, §8

C[n+]1ccc(/C=N/Nc2cc[n+](C)cc2)cc1 [RaH·2X, (E)-1-methyl-4-((2-(1-methylpyridin-1-ium-4-yl)hydrazineylidene)methyl)pyridin-1-ium]
pKa [1]: 9 | viability at 24 h, 0.5 mM [2]: ~90% | cell survival at the highest concentration tested (HFF-1 cells): slight reduction on cell survival
